Test results reported in paper PMC9516332 (Frontiers in Oncology, 2022).
Like-named read-outs stand apart in the source and are kept apart here.

Tested on: 134 cancer cell lines
Experiment: Cell viability assay (ATPlite, 72 hours), IC50 on cancer cell line panel

For C[C@H]1Oc2cc(cnc2N)-c2c(nn(C)c2C#N)CN(C)C(=O)c2ccc(F)cc21 [lorlatinib], the IC50 (HEC-6, read-out: IC50 in cell proliferation assay) was over 31.6 µM, the IC50 (Homo sapiens, 769-P, read-out: IC50 in cell proliferation assay) was over 31.6 µM and the IC50 (Homo sapiens, 786-0, read-out: IC50 in cell proliferation assay) was over 31.6 µM. For the same compound, the IC50 (Homo sapiens, A 172, read-out: IC50 in cell proliferation assay) was over 31.6 µM, the IC50 (Homo sapiens, A204, read-out: IC50 in cell proliferation assay) was over 31.6 µM and the IC50 (Homo sapiens, A498, read-out: IC50 in cell proliferation assay) was over 31.6 µM. The IC50 (Homo sapiens, A549, read-out: IC50 in cell proliferation assay) was 2.3 µM, the IC50 (Homo sapiens, A704, read-out: IC50 in cell proliferation assay) was over 31.6 µM and the IC50 (Homo sapiens, A-375, read-out: IC50 in cell proliferation assay) was 18.8 µM. For the same compound, the IC50 (Homo sapiens, A-427, read-out: IC50 in cell proliferation assay) was 27.4 µM, the IC50 (Homo sapiens, ACHN, read-out: IC50 in cell proliferation assay) was over 31.6 µM and the IC50 (Homo sapiens, AN3-CA, read-out: IC50 in cell proliferation assay) was over 31.6 µM. The IC50 (Homo sapiens, ASPC1, read-out: IC50 in cell proliferation assay) was 28.2 µM, the IC50 (Homo sapiens, AU565, read-out: IC50 in cell proliferation assay) was over 31.6 µM and the IC50 (Homo sapiens, BT-20, read-out: IC50 in cell proliferation assay) was over 31.6 µM. The IC50 (Homo sapiens, BT-474, read-out: IC50 in cell proliferation assay) was over 31.6 µM, the IC50 (Homo sapiens, BT-549, read-out: IC50 in cell proliferation assay) was over 31.6 µM and the IC50 (Homo sapiens, BXPC-3, read-out: IC50 in cell proliferation assay) was 0.049 µM. For the same compound, the IC50 (Homo sapiens, C-33-A, read-out: IC50 in cell proliferation assay) was over 31.6 µM, the IC50 (Homo sapiens, CAL-27, read-out: IC50 in cell proliferation assay) was over 31.6 µM and the IC50 (Homo sapiens, CCF-STTG1, read-out: IC50 in cell proliferation assay) was over 31.6 µM. It also gave an IC50 (Homo sapiens, CCRF-CEM, read-out: IC50 in cell proliferation assay) of over 31.6 µM, an IC50 (Homo sapiens, COLO 205, read-out: IC50 in cell proliferation assay) of 11.9 µM and an IC50 (Homo sapiens, COLO-829, read-out: IC50 in cell proliferation assay) of over 31.6 µM. For the same compound, the IC50 (Homo sapiens, DLD-1, read-out: IC50 in cell proliferation assay) was over 31.6 µM, the IC50 (Homo sapiens, DU-145, read-out: IC50 in cell proliferation assay) was 25.9 µM and the IC50 (Homo sapiens, DU-4475, read-out: IC50 in cell proliferation assay) was 25.9 µM. For the same compound, the IC50 (Homo sapiens, Daoy, read-out: IC50 in cell proliferation assay) was over 31.6 µM, the IC50 (Homo sapiens, DoTc2-4510, read-out: IC50 in cell proliferation assay) was 0.024 µM and the IC50 (Homo sapiens, EOL1, read-out: IC50 in cell proliferation assay) was 9.05 µM. The IC50 (Homo sapiens, FaDu, read-out: IC50 in cell proliferation assay) was over 31.6 µM, the IC50 (Homo sapiens, G-361, read-out: IC50 in cell proliferation assay) was over 31.6 µM and the IC50 (Homo sapiens, HCC827, read-out: IC50 in cell proliferation assay) was 17.1 µM. It also gave an IC50 (Homo sapiens, HCC4006, read-out: IC50 in cell proliferation assay) of 17.8 µM, an IC50 (Homo sapiens, HCT-15, read-out: IC50 in cell proliferation assay) of over 31.6 µM and an IC50 (Homo sapiens, HCT-116, read-out: IC50 in cell proliferation assay) of 23.8 µM. It also gave an IC50 (Homo sapiens, HEC-1, read-out: IC50 in cell proliferation assay) of 9.24 µM, an IC50 (Homo sapiens, HEC-1B, read-out: IC50 in cell proliferation assay) of over 31.6 µM and an IC50 (Homo sapiens, HL-60, read-out: IC50 in cell proliferation assay) of 28.1 µM. The IC50 (Homo sapiens, HT, read-out: IC50 in cell proliferation assay) was over 31.6 µM, the IC50 (Homo sapiens, HT-1080, read-out: IC50 in cell proliferation assay) was over 31.6 µM and the IC50 (Homo sapiens, Hs746T, read-out: IC50 in cell proliferation assay) was 9.43 µM. It also gave an IC50 (Homo sapiens, Hs-578T, read-out: IC50 in cell proliferation assay) of over 31.6 µM, an IC50 (Homo sapiens, HuTu80, read-out: IC50 in cell proliferation assay) of 7.5 µM and an IC50 (Homo sapiens, J82, read-out: IC50 in cell proliferation assay) of over 31.6 µM. It also gave an IC50 (Homo sapiens, Jurkat E6.1, read-out: IC50 in cell proliferation assay) of over 31.6 µM, an IC50 (Homo sapiens, K562, read-out: IC50 in cell proliferation assay) of 9.61 µM and an IC50 (Homo sapiens, KATO III, read-out: IC50 in cell proliferation assay) of over 31.6 µM. It also gave an IC50 (Homo sapiens, KG-1, read-out: IC50 in cell proliferation assay) of 9.21 µM, an IC50 (Homo sapiens, KLE, read-out: IC50 in cell proliferation assay) of over 31.6 µM and an IC50 (Homo sapiens, KMS-11, read-out: IC50 in cell proliferation assay) of 17.7 µM. The IC50 (Homo sapiens, KU812, read-out: IC50 in cell proliferation assay) was over 31.6 µM, the IC50 (Homo sapiens, Kasumi 1, read-out: IC50 in cell proliferation assay) was over 31.6 µM and the IC50 (Homo sapiens, LC-2-ad, read-out: IC50 in cell proliferation assay) was 20.4 µM. The IC50 (Homo sapiens, LNCaP-Clone-FGC, read-out: IC50 in cell proliferation assay) was over 31.6 µM, the IC50 (Homo sapiens, LS174T, read-out: IC50 in cell proliferation assay) was 14.2 µM and the IC50 (Homo sapiens, LS-411N, read-out: IC50 in cell proliferation assay) was 23.6 µM. For the same compound, the IC50 (Homo sapiens, LoVo, read-out: IC50 in cell proliferation assay) was over 31.6 µM.
